Results reported in patent US20230265068A1, “TRANSIENT RECEPTOR POTENTIAL CANONICAL 3 INHIBITORS AND METHODS OF USE THEREOF” (University of Tennessee Research Foundation, priority 2020, published 2023).
Where two headings read alike, the source gives them in different places.

Experiments:
[1] = target: T1, TRPC3 (Homo sapiens, UniProt Q13507); details: literature ref 20; read-out: reported IC50 for suppression of TRPC3; cited from earlier work
T1 sequence (Q13507 1-921): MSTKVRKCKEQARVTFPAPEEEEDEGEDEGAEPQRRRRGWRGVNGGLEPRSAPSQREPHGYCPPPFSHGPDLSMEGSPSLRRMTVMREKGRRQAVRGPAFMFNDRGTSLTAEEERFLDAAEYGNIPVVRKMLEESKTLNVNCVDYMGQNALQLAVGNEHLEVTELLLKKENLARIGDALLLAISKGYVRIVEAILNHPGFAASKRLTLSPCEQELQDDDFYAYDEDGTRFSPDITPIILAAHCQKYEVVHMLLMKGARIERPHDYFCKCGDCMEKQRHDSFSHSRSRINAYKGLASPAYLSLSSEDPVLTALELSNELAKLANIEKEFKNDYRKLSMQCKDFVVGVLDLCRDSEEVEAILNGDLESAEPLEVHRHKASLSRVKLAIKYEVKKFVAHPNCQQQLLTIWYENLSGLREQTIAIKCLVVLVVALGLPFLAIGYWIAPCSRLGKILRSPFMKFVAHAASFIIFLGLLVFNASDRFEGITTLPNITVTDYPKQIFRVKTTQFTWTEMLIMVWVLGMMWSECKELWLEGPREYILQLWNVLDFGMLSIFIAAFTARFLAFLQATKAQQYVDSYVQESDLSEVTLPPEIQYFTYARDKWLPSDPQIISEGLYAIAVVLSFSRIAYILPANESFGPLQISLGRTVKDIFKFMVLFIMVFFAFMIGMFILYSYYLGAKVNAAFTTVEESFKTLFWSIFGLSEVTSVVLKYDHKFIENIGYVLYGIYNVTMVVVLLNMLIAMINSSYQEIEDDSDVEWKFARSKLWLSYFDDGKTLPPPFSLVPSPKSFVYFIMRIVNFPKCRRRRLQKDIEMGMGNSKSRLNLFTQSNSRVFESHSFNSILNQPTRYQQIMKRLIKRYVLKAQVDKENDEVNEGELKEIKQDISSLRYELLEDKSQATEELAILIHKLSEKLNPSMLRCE

[2] = target: T1, TRPC3; assay: whole-cell patch clamp of HEK293 cells transfected with hTRPC3, currents activated by GSK1702934A; assay type: cell-based; set-up: expressed in transfected cells; host or cells: HEK293 (CRL-1573), transient transfection, pMO vector
Experimental: Human embryonic kidney 293 (HEK293; catalog number CRL-1573) cells were cultured in Dulbecco's modified Eagle's medium (Invitrogen) supplemented with 10% fetal bovine serum and 1% penicillin-streptomycin at 37° C. and 5% CO2. Constructs cloned in pMO (a pcDNA3-modified vector) were co-transfected with GFP-pMO, using Lipofectamine 2000 (Invitrogen) according to the manufacturer's instructions. Macroscopic currents in the whole-cell patch clamp configuration were recorded 18-24 h post-transfection. The extracellular solution contained 140 mM NaCl, 6 mM KCl, 2 mM MgCl2, 10 mM HEPES, and 10 mM glucose (pH 7.4). Pipettes were made of borosilicate glass (outer diameter, 1.5 mm; inner diameter, 1.10 mm; Sutter Instruments) and fire-polished with a resistance between 2.8 and 4.0 megaohms when filled with an intracellular solution that contained 140 mM CsCl, 5 mM EGTA, and 10 mM HEPES, pH 7.2. Currents were recorded with a Multiclamp 700B amplifier (Molecular Devices) using a 1-s ramp from −100 to 100 mV. Agonist and antagonists perfused were dissolved in the bath solution prior experiments: TRP channel agonists Allyl isothiocyanate (AITC; TRPA1), capsaicin (TRPV1), and menthol (TRPM8) were obtained from Sigma, GSK1016790A (TRPV4) from Cayman chemicals, and GSK1702934A (TRPC3, TRPC6 and TRPC7) from Tocris Bioscience. Antagonist Pyr3 was obtained from Tocris Bioscience, all other antagonists were synthesized in house. Data were acquired with a sampling rate of 20 kHz, low-pass filtered (10 kHz), and analyzed offline using Clampfit v10.4.2.0 (Molecular Devices).
Electrophysiology results were expressed as means±SD. Data were plotted, and sigmoidal fitting was done using OriginPro (from OriginLab), with the following Boltzmann function:
Using the patch clamp technique in the whole-cell configuration, compounds were screened by challenging hTRPC3 overexpressing HEK293 cells with GSK1702934A to activate TRPC3 and each of the synthesized compounds (10 μM) individually in the presence of the agonist.
To avoid tachyphylaxis and determine the IC50 of compound 22, each point of the dose response curve (FIG. 1B) was done individually on a cell and exchanging coverslips between cells. […] FIGS. 1D-1I show the inhibition of TRPC3-mediated currents by compound 22 and Pyr3 (serving as the reference control). […] Similar results were obtained when OAG was used as the agonist (data not shown).

[3] = metabolic stability in mouse liver microsomes; assay type: in vitro ADME; details: mouse liver microsomes
Experimental: (§1) The metabolic stability of compound 22 was tested prior to the next phase of in vivo study. […] The maximum tolerated dose (MTD) study was subsequently performed to investigate its in vivo toxicity (FIGS. 4A and 4B). The second major limitation of Pyr3 is its toxicity due to its alkylating tail moiety. While replacing only the fast-metabolizing head ester group in Pyr3 with a stable amide (compound 79) improved metabolic stability, a single IP injection of compound 79 at 200 mg/kg killed all mice within 24 h.

[4] = system: hippocampal neurons; assay: neuroprotection against Aβ-containing conditioned medium (7PA2) in primary hippocampal neurons; assay type: cell-based, rat; details: 14 DIV neurons, 7PA2 medium, 16 hours, different concentrations
Experimental: To visualize dendritic spines, 14 DIV hippocampal neurons at low density (5,000 cells per 35 mm dish) were exposed to 7PA2 conditioned media (CM), which contains naturally secreted Aβ, or CHO control media or for 16 h, with or without cotreatment with the two inhibitor compounds, followed by immunocytochemistry with MAP2 and DAPI counterstaining.
(§2) To explore the potential biological effects of compound 22 in a TRPC3 related disease model, its neuroprotective ability in primary cultured neurons (14 DIV prepared from E17 rats as described) was evaluated. The effects on neuron dendritic morphology were measured by imaging. Mature hippocampal neurons (DIV=14) were treated with CHO control medium, or naturally secreted Aβ-containing conditioned medium (7PA2), or in combination with compound 22 or Pyr3 at different concentrations, for 16 hours, followed by immunocytochemistry using an antibody against MAP2 and DAPI (data not shown). […] Hippocampal neurons (DIV=14) were treated with compound 22 or Pyr3 alone at different concentrations, followed by immunocytochemistry staining with MAP2 and DAPI (data not shown).

[5] = system: hippocampal neurons; assay: toxicity of compound alone in hippocampal neuronal culture; assay type: cell-based, rat; details: compound alone at different concentrations
Experimental: as §2

[6] = metabolic stability in human liver microsomes; assay type: in vitro ADME; details: human liver microsomes
Experimental: as §1

[7] = metabolic stability in rat liver microsomes; assay type: in vitro ADME; details: rat liver microsomes
Experimental: as §1

Structure (SMILES): CCOC(=O)c1cnn(-c2ccc(NC(=O)C(Cl)=C(Cl)Cl)cc2)c1C(F)(F)F [Pyr3, reference compound]
- IC50 [1]: 700 nM
- hTRPC3 % Inhibition at 10 μM (mean ± SEM) ([2]; 10 μM compound in presence of agonist GSK1702934A, HEK293 whole-cell peak current): 91.72 ± 0.53%
- IC50 ([2]; agonist GSK1702934A, HEK293 whole-cell patch clamp, read-out: hTRPC3 IC50 (μM, mean ± SEM)): 0.53 ± 0.05 µM
- half-life time [3]: less than 15 minutes
- protection against Aβ-induced damage to dendrites (MAP2/DAPI) [4]: protect against Aβ-induced damage to dendrites
- toxicity in neuronal culture [5]: lack of toxicity
- half-life time [6]: less than 15 minutes
- half-life time [7]: less than 15 minutes
